Test results taken from patent publication US10351594B2, “Process for preparing compounds having triple activities of thrombolysis, antithrombosis, and radical scavenging” (Shanghai Lumosa Therapeutics Co., Ltd., priority 2013, dated 2019).
“Also recorded” adds a separate entry of the source. Marks after values point to notes of the source that are not given here.

Key:
[1] = system: formation of thrombus (rat arteriovenous bypass); test: Antithrombotic activity via intravenous administration, rat arteriovenous bypass cannula with thread; format: in vivo, male SD rats; details: for wet weight of thrombus: n = 10
Source text: A cannula was composed of 3 segments. The middle segment has a length of 80 mm and an inner diameter of 3.5 mm. […] The pre-weighed, 60 mm in length thread was placed in the middle segment of the polyethylene tube. Both ends of the wider tube sheathed the un-narrowed ends of two polyethylene tubes respectively (0.5 mm of the thread was restrained by one of the segment to fix the thread). The cannula was filled with a heparin solution in normal saline (50 IU/kg) through the tip end by using an injector and was ready for use. 200-220 g male SD rats were anesthetized with 20% urethane solution (6 mL/kg, ip). Anesthetized rats were fixed in a supine position, and the left external jugular vein was separated and penetrated with a suture at the proximal and distal ends respectively, and the distal end was ligated. An incision was carefully made on the exposed left external jugular vein, and the tip end without thread-restraining of the bypass cannula prepared as described above was inserted into the proximal end of the open incision in the left external jugular vein. A precise amount of heparin in normal saline (50 IU/kg) was injected through the tip at the other end by using an injector. Then, the injector was replaced, and precise amount of drug was injected by the same way. At this moment, without removing the injector from the ethylene tube, the right common carotid artery was separated, and the proximal end was clipped by an artery clip. The right common carotid artery was penetrated with a suture at the proximal and distal ends respectively, and the distal end was ligated. An incision was carefully cut across the right common carotid artery near the artery clip. The injector was pulled out of the polyethylene tube through the tip, and the tip of the polyethylene tube was then inserted into the proximal end of the artery incision. Both ends of the bypass cannula were fixed to the artery or vein with #4 sutures. The artery clip was then removed to allow blood to flow from the artery to the vein through the bypass cannula. A rat arteriovenous bypass thrombolysis model was thus established. The process was timed from the beginning of circulation, the thread attached with thrombus was taken out from the bypass cannula after 15 minutes and accurately weighed. The difference in the mass of the thread before and after was determined as the wet weight of the thrombus, which was statistically analyzed and used to evaluate the in vivo antithrombotic activities of the compounds. The wet weight of the thrombus was expressed as average value and standard deviation (x±SD). The drug administration method is intravenous injection. The blank control was normal saline solution, and the dose was 1 mL/kg. The positive control was aspirin, and the dose was 9 mg/kg. The dose of compounds 5Aa-p of the present invention was 0.1 nmol/kg. The method was the same as in example 3. The drug administration method is intravenous injection. The blank control was normal saline solution, and the dose was 3 mL/kg. The positive control was aspirin, and the dose was 9 mg/kg.

[2] = NO radical scavenging activity (MGD/SNAP signal peak height); format: biochemical; details: n = 6
Protocol: 7.325 mg MGD (N-methyl-glucamine dithiocarbamate, Sigma) was dissolved in 1 mL of pure water to obtain 25 mM MGD solution. […] FeSO4.7H2O was dissolved in 1 mL of pure water to obtain 12.5 mM solution. […] SNAP (S-Nitroso-acetyl penicillamine) was dissolved in 1 mL of pure water to obtain 110 μM green mother liquid, which was diluted 100 folds to obtain 1 μM SNAP solution.
The first peak height of NO signal of 5 μL MGD solution+5 μL FeSO4.7H2O solution+5 μL SNAP solution+5 μL water was measured and repeated for 6 times. This peak height defined as the known peak height of NO signal. The first peak height of NO signal of 5 μL MGD solution+5 μL FeSO4.7H2O solution+5 μL SNAP solution+5 μL solution of one of the compounds 5Aa-p was measured and repeated for 6 times. This peak height defined as the residual peak height of the NO signal scavenged by one of the compounds 5Aa-p. Scavenging ratio=(known peak height of NO signal−residual peak height of NO signal of compounds 5Aa-p)/known peak height of NO signal

[3] = Superoxide anionic radical scavenging activity (xanthine/xanthine oxidase, DMPO); format: biochemical; details: n = 6
Protocol: […] xanthine was dissolved in 1 mL of pure water to obtain 0.5 M xanthine solution (milk white color, largely insoluble). Commercially available raw solution of xanthine oxidase was diluted 10 folds to obtain solution of xanthine oxidase. Saturated DETAPAC solution was diluted 20 folds to obtain 0.9 mM solution. 11.316 mg DMPO was dissolved in 1 mL of pure water to obtain 0.1 M DMPO solution.
5 μL DMPO solution+5 μL DETAPAC solution+5 μL xanthine solution+5 μL xanthine oxidase solution+5 μL compounds 5Aa-p solution
The first peak height of superoxide anion signal of 5 μL DMPO solution+5 μL DETAPAC solution+5 μL xanthine solution+5 μL xanthine oxidase solution+5 μL water was measured and repeated for 6 times. This peak height defined as the known peak height of superoxide anion signal. The first peak height of superoxide anion signal of 5 μL DMPO solution+5 μL DETAPAC solution+5 μL xanthine solution+5 μL xanthine oxidase solution+5 μL solution of one of compounds 5Aa-p was measured and repeated for 6 times. This peak height defined as the residual peak height of the superoxide anion signal scavenged by one of the compounds 5Aa-p. Scavenging ratio=(known peak height of superoxide anion signal−residual peak height of superoxide anion signal of compounds 5Aa-p)/known peak height of superoxide anion signal

[4] = rat, 5Aa-p (i.v.) 0.1 nmol/kg, 15 minutes

| EC50 [2] [µM] | EC50 [3] [µM] | Compound | wet weight of thrombus [1, 4] | wet weight of thrombus ([1]; Table 4, 5Ak 0.1 nmol/kg i.v.) | Antithrombotic activity, result in words ([1]; rat, intravenous, 5Ak 0.1 nmol/kg (dose-effect: 0.1, 0.01, 0.001 nmol/kg)) |
| --- | --- | --- | --- | --- | --- |
| 527 ± 90 | 452 ± 64 | CC[C@H](C)[C@H](NC(=O)[C@H](C)NC(=O)[C@@H]1CCCN1)C(=O)NCCCC[C@H](NC(=O)[C@@H]1Cc2cc(O)c(O)cc2C(C)(C)N1)C(=O)O [Compound 5Ai, 3S-6,7-dihydroxy-1,1-dimethyl-1,2,3,4-tetrahydro-isoquinoline-3-acyl-Lys(Pro-Ala-Ile)] | 56.12 ± 5.55^a mg | – | – |
| 510 ± 75 | 417 ± 95 | C[C@H](NC(=O)[C@@H]1CCCN1)C(=O)N[C@H](C(=O)NCCCC[C@H](NC(=O)[C@@H]1Cc2cc(O)c(O)cc2C(C)(C)N1)C(=O)O)[C@@H](C)O [Compound 5Aj, 3S-6,7-dihydroxy-1,1-dimethyl-1,2,3,4-tetrahydro-isoquinoline-3-acyl-Lys(Pro-Ala-Thr)] | 50.56 ± 3.96^a mg | – | – |
| 503 ± 41 | 414 ± 97 | CC(C)C[C@H](NC(=O)[C@H](C)NC(=O)[C@@H]1CCCN1)C(=O)NCCCC[C@H](NC(=O)[C@@H]1Cc2cc(O)c(O)cc2C(C)(C)N1)C(=O)O [Compound 5Al, 3S-6,7-dihydroxy-1,1-dimethyl-1,2,3,4-tetrahydro-isoquinoline-3-acyl-Lys(Pro-Ala-Leu)] | 54.20 ± 3.93^a mg | – | – |
| 647 ± 88 | 371 ± 45 | C[C@H](NC(=O)[C@@H]1CCCN1)C(=O)N[C@@H](CCC(N)=O)C(=O)NCCCC[C@H](NC(=O)[C@@H]1Cc2cc(O)c(O)cc2C(C)(C)N1)C(=O)O [Compound 5Am, 3S-6,7-dihydroxy-1,1-dimethyl-1,2,3,4-tetrahydro-isoquinoline-3-acyl-Lys(Pro-Ala-Gln)] | 58.14 ± 2.30^a mg | – | – |
| 659 ± 89 | 383 ± 94 | C[C@H](NC(=O)[C@@H]1CCCN1)C(=O)N[C@@H](CC(N)=O)C(=O)NCCCC[C@H](NC(=O)[C@@H]1Cc2cc(O)c(O)cc2C(C)(C)N1)C(=O)O [Compound 5An, 3S-6,7-dihydroxy-1,1-dimethyl-1,2,3,4-tetrahydro-isoquinoline-3-acyl-Lys(Pro-Ala-Asn)] | 55.11 ± 4.76^a mg | – | – |
| 473 ± 99 | 435 ± 65 | C[C@H](NC(=O)[C@@H]1CCCN1)C(=O)N[C@@H](CC(=O)O)C(=O)NCCCC[C@H](NC(=O)[C@@H]1Cc2cc(O)c(O)cc2C(C)(C)N1)C(=O)O [Compound 5Ao, 3S-6,7-dihydroxy-1,1-dimethyl-1,2,3,4-tetrahydro-isoquinoline-3-acyl-Lys(Pro-Ala-Asp)] | 48.34 ± 3.29^a mg | – | – |
| 477 ± 91 | 420 ± 73 | C[C@H](NC(=O)[C@@H]1CCCN1)C(=O)N[C@@H](CCC(=O)O)C(=O)NCCCC[C@H](NC(=O)[C@@H]1Cc2cc(O)c(O)cc2C(C)(C)N1)C(=O)O [Compound 5Ap, 3S-6,7-dihydroxy-1,1-dimethyl-1,2,3,4-tetrahydro-isoquinoline-3-acyl-Lys(Pro-Ala-Glu)] | 49.97 ± 6.32^a mg | – | – |

The next lines start with the compound.

| Compound | EC50 [2] [µM] | EC50 [3] [µM] | wet weight of thrombus [1, 4] | wet weight of thrombus ([1]; Table 4, 5Ak 0.1 nmol/kg i.v.) | Antithrombotic activity, result in words ([1]; rat, intravenous, 5Ak 0.1 nmol/kg (dose-effect: 0.1, 0.01, 0.001 nmol/kg)) |
| --- | --- | --- | --- | --- | --- |
| 3S-6,7-dihydroxy-1,1-dimethyl-1,2,3,4-tetrahydro-isoquinoline-3-acyl-Lys(Pro-Ala-Ala) [Compound 5Aa] | 599 ± 38 | 477 ± 56 | 54.04 ± 6.43^a mg | – | – |
| 3S-6,7-dihydroxy-1,1-dimethyl-1,2,3,4-tetrahydro-isoquinoline-3-acyl-Lys(Pro-Ala-Gly) [Compound 5Ag] | 609 ± 95 | 467 ± 94 | 54.28 ± 3.57^a mg | – | – |
| 3S-6,7-dihydroxy-1,1-dimethyl-1,2,3,4-tetrahydro-isoquinoline-3-acyl-Lys(Pro-Ala-Val) [Compound 5Ab] | 532 ± 73 | 471 ± 34 | 54.17 ± 6.61^a mg | – | – |
| C[C@H](NC(=O)[C@@H]1CCCN1)C(=O)N[C@@H](Cc1c[nH]c2ccccc12)C(=O)NCCCC[C@H](NC(=O)[C@@H]1Cc2cc(O)c(O)cc2C(C)(C)N1)C(=O)O [Compound 5Ac, 3S-6,7-dihydroxy-1,1-dimethyl-1,2,3,4-tetrahydro-isoquinoline-3-acyl-Lys(Pro-Ala-Trp)] | 463 ± 92 | 366 ± 71 | 52.93 ± 3.96^a mg | – | – |
| C[C@H](NC(=O)[C@@H]1CCCN1)C(=O)N[C@@H](Cc1ccc(O)cc1)C(=O)NCCCC[C@H](NC(=O)[C@@H]1Cc2cc(O)c(O)cc2C(C)(C)N1)C(=O)O [Compound 5Ad, 3S-6,7-dihydroxy-1,1-dimethyl-1,2,3,4-tetrahydro-isoquinoline-3-acyl-Lys(Pro-Ala-Tyr)] | 453 ± 41 | 354 ± 71 | 51.91 ± 4.97^a mg | – | – |
| C[C@H](NC(=O)[C@@H]1CCCN1)C(=O)N1CCC[C@H]1C(=O)NCCCC[C@H](NC(=O)[C@@H]1Cc2cc(O)c(O)cc2C(C)(C)N1)C(=O)O [Compound 5Ae, 3S-6,7-dihydroxy-1,1-dimethyl-1,2,3,4-tetrahydro-isoquinoline-3-acyl-Lys(Pro-Ala-Pro)] | 617 ± 88 | 481 ± 45 | 57.20 ± 6.43^a mg | – | – |
| C[C@H](NC(=O)[C@@H]1CCCN1)C(=O)N[C@@H](Cc1ccccc1)C(=O)NCCCC[C@H](NC(=O)[C@@H]1Cc2cc(O)c(O)cc2C(C)(C)N1)C(=O)O [Compound 5Af, 3S-6,7-dihydroxy-1,1-dimethyl-1,2,3,4-tetrahydro-isoquinoline-3-acyl-Lys(Pro-Ala-Phe)] | 568 ± 95 | 485 ± 31 | 54.01 ± 4.25^a mg | – | – |
| C[C@H](NC(=O)[C@@H]1CCCN1)C(=O)N[C@@H](CO)C(=O)NCCCC[C@H](NC(=O)[C@@H]1Cc2cc(O)c(O)cc2C(C)(C)N1)C(=O)O [Compound 5Ah, 3S-6,7-dihydroxy-1,1-dimethyl-1,2,3,4-tetrahydro-isoquinoline-3-acyl-Lys(Pro-Ala-Ser)] | 523 ± 85 | 401 ± 72 | 50.67 ± 3.71^a mg | – | – |
| C[C@H](NC(=O)[C@@H]1CCCN1)C(=O)N[C@@H](CCCCN)C(=O)NCCCC[C@H](NC(=O)[C@@H]1Cc2cc(O)c(O)cc2C(C)(C)N1)C(=O)O [Compound 5Ak, 3S-6,7-dihydroxy-1,1-dimethyl-1,2,3,4-tetrahydro-isoquinoline-3-acyl-Lys(Pro-Ala-Lys)] | 499 ± 89 | 363 ± 94 | 51.93 ± 2.74^a mg | 52.16 ± 2.02^a mg | effectively inhibit the formation of thrombus; also recorded: obvious dose-effect relationship |
